SMILES strings stand for the structures. pIC50: −log10 of the molar value. Like-named read-outs stand apart in the source and are kept apart here.

The record followed here is patent US12521425B2, “Method of liver cancer treatment with safranal-based formulations” (priority 2019, dated 2026).

One experiment concerns HepG2 cells. The experiment is described as follows: SRB assay, cytotoxicity of topotecan ± safranal. The class given is cell-based. To be noted: for pIC50: Homo sapiens. The method, then: SRB assay. The effect of safranal on the cytotoxicity of the topoisomerase 1 inhibitor topotecan was tested using the sulforhodamine-B (SRB) assay as previously described. Exponentially growing HepG2 cells were seeded in 96-well plates at cell density of 1×10^4 cells per well. […] At the end of the incubation period, cells were fixed with 50% trichloroacetic acid (TCA) for 1 hours at 4° C. followed by washing, staining with SRB for 30 min followed by washing and solubilization of the stain with 10 mM Tris base (pH 10.5). The optical density (OD) at each well was measured spectrophotometrically at 564 nm with an ELISA microplate reader (Metertech. S960, USA). The IC50 values were calculated using sigmoidal concentration-response curve fitting models (Graph Pad, Prizm software).
(In SRB staining, fixed cells bind dye roughly in proportion to their protein.)

The subject of experiment [1] is DEN-induced hepatic neoplasia. The experiment is described as follows: Serum ALT and AST in DEN-induced HCC model. To be noted: HCC rats, oral gavage 5 days a week, weeks 17-19, safranal 200 mg/kg, sorafenib 10 mg/kg, mean±SEM, n=6. Format: in vivo, male Wistar rats. The method, then: A modified version of the protocol described by DePeralta et al. (2016) and Schiffer et al. (2005) was used here to establish the hepatocarcinogenesis model.
On the first 15 weeks, the control PBS group was treated with 1×PBS, whereas the experimental groups were given an intraperitoneal injection (IP) of 50 mg/kg of diethylnitrosoamine (DEN, Sigma Aldrich), a widely used chemical for inducing cancer, once a week. DEN was diluted with 1×PBS. Following a one-week break (week 16), the next three weeks (weeks 17 to 19) of treatment commenced. All drugs were administrated by oral gavage. All doses were chosen according to literature (Alsaied et al., 2014; Karafakioglu et al., 2017). For the HCC+sorafenib group, the drug (Carbosynth Limited) was administered at a dose of 10 mg/kg, five days a week. For the HCC+safranal group, the drug (Sigma Aldrich) was administered at a dose of 200 mg/kg, five days a week. For the HCC+safranal+sorafenib group, the drugs were administered at a dose of 200 mg/kg safranal+10 mg/kg sorafenib, five days a week. Both safranal and sorafenib were diluted with 1×PBS and drops of Tween 80. […] After 24-hours from last treatment, the rats were euthanized by mild diethyl ether and dissected in equal conditions. Blood and whole liver were collected.
Rats were euthanized then blood was collected by decapitation and processed for later investigation. The blood was collected in collection tubes (BD Vacutainer) and serum was separated by centrifugation at 1200× g for 10 minutes. Serum was collected and flash frozen immediately then stored at −80° C. for further analysis.
Alanine Transaminase (ALT), and Aspartate Aminotransferase (AST) assays were performed using commercial kits (Abcam), according to the protocol provided. ALT and AST activities were measured spectrophotometrically using Epoch by BioTek.

A word on the pIC50: it is the IC50 on a negative log10 scale, so that one unit is a factor of ten. In the case of `CC[C@@]1(O)C(=O)OCc2c1cc1n(c2=O)Cc2cc3c(CN(C)C)c(O)ccc3nc2-1` [Topotecan, topotecan], in the experiment with HepG2 cells (HepG2, incubation with safranal for 24 or 48 h before topotecan), the sensitization factor is listed as 73. Moreover, the negative logarithm of the IC50 (pIC50) in the experiment with HepG2 cells (HepG2, HepG2, SRB, topotecan 48 h alone or after safranal 500 μM pre-incubation, read-out: IC50 of topotecan ± safranal) was 6.93; in the experiment on HepG2 cells (HepG2, HepG2, incubation with safranal for 24 or 48 h before topotecan, read-out: topotecan IC50) it was 8.80; with HepG2 cells (HepG2, HepG2, topotecan alone, read-out: topotecan IC50), 6.93.

In experiment [1], `CNC(=O)c1cc(Oc2ccc(NC(=O)Nc3ccc(Cl)c(C(F)(F)F)c3)cc2)ccn1` [sorafenib, reference compound] gave an ALT of 13.42 ± 1.12 mU/ml and an AST of 11.14 ± 0.62 mU/ml.
